Measured values as given in publication PMC7190660, “Standardised comparison of limonene-derived monoterpenes identifies structural determinants of anti-inflammatory activity” (Scientific Reports, 2020).
“And” between values parts separate entries of the source, which are not always exact repeats. Equal entries are not always repeated.

How the values were obtained:
[1] = system: Raw 264.7 cells; assay: Cytotoxicity by resazurin reduction assay in Raw 264.7 cells; assay type: cell-based, mouse; details: viability not decreased by more than 30% relative to LPS alone (ISO 10993-5), LPS 1 µg/mL 18 h
Procedure: Various concentrations of the test compounds, in the absence or presence of LPS, were first evaluated for cytotoxicity using the resazurin reduction assay[26]
(§1) Raw 264.7 cells were plated at a density of 3 × 10^5 cells/mL and left to stabilize for up to 24 h.
Resazurin is a redox dye used as an indicator of cellular metabolic activity for various applications, namely cell viability, proliferation and toxicity. The assay is based on the intracellular reduction of the non-fluorescent resazurin to resorufin (a fluorescent and pink coloured compound) by mitochondrial or microsomal enzymes that use NADH or NADPH as electron sources. Since only metabolically active cells can reduce the dye, the increase in fluorescence or absorbance is directly proportional to the number of viable cells[26],[50].
To select non-cytotoxic concentrations of the test compounds, the resazurin solution was added to each well to a final concentration of 50 µM, 90 min before the end of the treatment period indicated in the figure legends. Then, absorbances at 570 nm and 620 nm (reference wavelength) were read in a Biotek Synergy HT plate reader (Biotek, Winooski, VT, USA).

[2] = system: LPS-induced NO production in Raw 264.7 macrophages; assay: Primary screening: LPS-induced NO production (nitrite, Griess reaction) in Raw 264.7 macrophages; assay type: cell-based, mouse; details: for IC50: Mus musculus, RAW264.7, Raw 264.7 cell line; for Decrease (inhibition) of LPS-induced NO production: at the highest concentration tested; for Decrease (inhibition) of LPS-induced NO production / % inhibition of LPS-induced NO production / Effect on LPS-induced NO production / anti-inflammatory activity (in words): Raw 264.7; for % inhibition of LPS-induced NO production: at the highest non-cytotoxic concentration tested, nitrite in supernatants; for Effect on LPS-induced NO production / anti-inflammatory activity (in words): non-cytotoxic concentrations
Procedure: as §1
This vehicle was used as control. Lipopolysaccharides from Escherichia coli 026:B6 (LPS; Sigma-Aldrich Co.) were dissolved in phosphate buffered saline (PBS). Recombinant human interleukin-1β (IL-1β; Peprotech, Rocky Hill, NJ, USA) was dissolved in PBS containing 0.1% Bovine Serum Albumin.
NO production was measured as the amount of nitrite accumulated in the culture supernatants using the Griess reaction which is based in the reaction of nitrite with sulfanilamide under acidic conditions, yielding a diazonium ion that couples to N-(1-napthtyl)ethylenediamine dihydrochloride to form a water-soluble red-violet azo dye that absorbs at 550 nm[51]. Briefly, equal volumes of culture supernatants and reagents [equal volumes of 1% (w/v) sulphanilamide in 5% (v/v) phosphoric acid and 0.1% (w/v) N-(1-napthtyl)ethylenediamine dihydrochloride] were mixed and incubated for 10 min, at room temperature, in the dark. The concentration of nitrite accumulated in the culture supernatants was calculated by interpolation of the absorbance of each sample, read in Biotek Synergy HT plate reader (Biotek), in a standard curve of sodium nitrite.

Row | SMILES | Highest non-cytotoxic concentration tested [1] | IC50 [2] | Decrease (inhibition) of LPS-induced NO production [2] | % inhibition of LPS-induced NO production [2] | Effect on LPS-induced NO production / anti-inflammatory activity (in words) [2] | Effect on LPS-induced NO production / anti-inflammatory activity (in words) ([2]; listed as 10) | Effect on LPS-induced NO production / anti-inflammatory activity (in words) ([2]; listed as 2) | Effect on LPS-induced NO production / anti-inflammatory activity (in words) ([2]; listed as 12) | Effect on LPS-induced NO production / anti-inflammatory activity (in words) ([2]; listed as 1) | Effect on LPS-induced NO production / anti-inflammatory activity (in words) ([2]; listed as 11)
1 | C=C(C)[C@@H]1CCC(C)C(=O)C1 (single isomer, unassigned; (+)) [(+)-dihydrocarvone (7), (+)-dihydrocarvone] | 2628 µM and 400 µg/mL | 1.47 mM and 224 µg/mL | greater than 30% | 73.57 ± 2.81 % ± SEM |  |  |  |  |  | 
2 | C=C(C)[C@@H]1CC=C(C)C(O)C1 (single isomer, unassigned; (-)) [(−)-carveol (6), (−)-carveol] | 2628 µM and 400 µg/mL | 2 mM and 304 µg/mL | greater than 30% | 52.30 ± 5.54 % ± SEM |  |  |  |  |  | 
3 | C=C(C)[C@@H]1CC[C@](C)(O)[C@@H](O)C1 [(1 S,2 S,4 R)-(+)-limonene-1,2-diol (3), (1 S,2 S,4 R)-(+)-limonene-1,2-diol] | 2349 µM and 400 µg/mL |  | less than 20% | 13.90 ± 2.03 % ± SEM | inactive |  |  |  |  | 
4 | C=C(C)[C@H]1CC[C@H](C)[C@@H](O)C1 [(+)-dihydrocarveol (8), (+)-dihydrocarveol] | 1297 µM and 200 µg/mL | 532 µM and 82.1 µg/mL | greater than 30% | 71.03 ± 2.28 % ± SEM |  |  |  |  |  | 
5 | C=C(C)[C@H]1CC[C@H](C)C[C@@H]1O [(+)-isopulegol (10), (+)-isopulegol] | 2593 µM and 400 µg/mL |  |  | −18.47 ± 5.65 % ± SEM | inactive | no effect |  |  |  | 
6 | CC1=CC[C@@H](C(C)(C)O)CC1=O [(R)-8-hydroxycarvotanacetone (21), (R)-5-(2-hydroxypropan-2-yl)-2-methylcyclohex-2-en-1-one] | 2378 µM and 400 µg/mL | 842 µM and 142 µg/mL | greater than 30% | 76.25 ± 1.97 % ± SEM | significant activity |  |  |  |  | 
7 | C=C(C)[C@H]1CC=C(C)CC1 [(R)-(+)-limonene (2), (R)-(+)-limonene] |  |  |  | −1.80 ± 0.55 % ± SEM | inactive |  | no effect |  |  | 
8 | CC(C)=C1CC[C@@H](C)CC1=O [(R)-(+)-pulegone (12), (R)-(+)-pulegone] | 1314 µM and 200 µg/mL |  |  | 7.80 ± 2.98 % ± SEM | inactive |  |  | no effect |  | 
9 | CC1=CC[C@H](C(C)(C)O)CC1=O [(S)-8-hydroxycarvotanacetone (20), (S)-5-(2-hydroxypropan-2-yl)-2-methylcyclohex-2-en-1-one] | 2378 µM and 400 µg/mL | 762 µM and 116 µg/mL | greater than 30% | 78.43 ± 1.60 % ± SEM | significant activity |  |  |  |  | 
10 | C=C(C)[C@@H]1CC=C(C)CC1 [(S)-(−)-limonene (1), (S)-(−)-limonene] |  |  |  | 11.08 ± 4.65 % ± SEM | inactive |  |  |  | no effect | 
11 | CC(C)=C1CC[C@H](C)CC1=O [(S)-(−)-pulegone (13), (S)-(−)-pulegone] | 2628 µM and 400 µg/mL |  |  | 35.60 ± 4.86 % ± SEM | weak activity |  |  |  |  | 
12 | C=C(C)[C@@H]1CC[C@@H](C)[C@H](O)C1 [(−)-dihydrocarveol (9), (−)-dihydrocarveol] | 2593 µM and 400 µg/mL | 2.14 mM and 330 µg/mL | greater than 30% | 62.03 ± 8.62 % ± SEM |  |  |  |  |  | 
13 | C=C(C)[C@@H]1CC[C@@H](C)C[C@H]1O [(−)-isopulegol (11), (−)-isopulegol] | 2593 µM and 400 µg/mL |  |  | −12.63 ± 1.30 % ± SEM | inactive |  |  |  |  | no effect
14 | CC(C)[C@@H]1CC[C@@H](C)C[C@H]1O [(−)-menthol (15), (−)-menthol] | 2560 µM and 400 µg/mL |  |  | −6.90 ± 1.24 % ± SEM | no effect |  |  |  |  | 
15 | CC(C)[C@@H]1CC[C@@H](C)CC1=O [(−)-menthone (14), (−)-menthone] | 1297 µM and 200 µg/mL |  |  | −9.88 ± 2.85 % ± SEM | no effect |  |  |  |  | 
16 | Cc1ccc(C(C)C)cc1O [carvacrol (18), carvacrol] | 33 µM and 5 µg/mL |  | less than 20% | 10.78 ± 1.34 % ± SEM | almost no activity |  |  |  |  | 
17 | Cc1ccc(C(C)C)cc1 [p-cymene (17), p-cymene] | 37 µM and 5 µg/mL |  | less than 20% | 8.50 ± 5.53 % ± SEM | showed no activity |  |  |  |  | 
18 | Cc1ccc(C(C)C)c(O)c1 [thymol (19), thymol] | 83 µM and 12.5 µg/mL |  | less than 20% | 8.93 ± 1.91 % ± SEM | showed no activity |  |  |  |  | 
